From the NIST ThermoML archive (doi:10.1016/j.jct.2019.02.028)

Details: Gas, Burnett expansion method

[He] [helium]
Details	mass density [kg/m3]
323.66 K, 875.31 kPa	1.297
323.67 K, 386.6 kPa	0.5746
323.67 K, 1986.4 kPa	2.9278
323.67 K, 2996.7 kPa	4.3975
323.68 K, 581.96 kPa	0.8635
323.68 K, 1318.2 kPa	1.9481
323.68 K, 4542.5 kPa	6.6206
333.58 K, 398.41 kPa	0.5744
333.58 K, 901.91 kPa	1.2964
333.58 K, 1358 kPa	1.9472
333.58 K, 3086.7 kPa	4.3949
333.58 K, 4675.1 kPa	6.6128
333.59 K, 2046.3 kPa	2.926
333.62 K, 599.5 kPa	0.8631
343.5 K, 616.99 kPa	0.8628
343.5 K, 1397.8 kPa	1.9464
343.51 K, 928.6 kPa	1.2959
343.51 K, 3177 kPa	4.3922
343.51 K, 4808.1 kPa	6.6049
343.52 K, 410.1 kPa	0.5742
343.52 K, 2106 kPa	2.9243
353.39 K, 421.94 kPa	0.5741
353.39 K, 634.63 kPa	0.8624
353.39 K, 3267.2 kPa	4.3896
353.39 K, 4938.7 kPa	6.5971
353.4 K, 954.95 kPa	1.2953
353.4 K, 1437.5 kPa	1.9455
353.4 K, 2165.8 kPa	2.9225
363.2 K, 2225.1 kPa	2.9208
363.28 K, 1476.9 kPa	1.9446
363.28 K, 5072.4 kPa	6.5893
363.29 K, 433.46 kPa	0.5739
363.29 K, 433.47 kPa	0.5739
363.29 K, 652.06 kPa	0.862
363.29 K, 652.07 kPa	0.862
363.29 K, 981.18 kPa	1.2947
363.29 K, 2225 kPa	2.9208
363.29 K, 3356.7 kPa	4.387
